Results reported in patent publication US12497408B2, “Tetracyclic compounds and methods for the treatment of Zika virus infection” (priority 2021, dated 2025).

Each compound was assayed on ZIKV (assay: ZIKV reporter virus-based antiviral screening on Huh7 cells). Conditions: Huh7 cells infected with recombinant luciferase reporter ZIKV (MOI about 0.1), 48 hrs, luciferase signal; read-out: EC50.
Assay type: cell-based, Zika virus
Outline: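 Huh7 cells in 2% FBS assay medium infected at MOI about 0.1 with Renilla or Nano luciferase ZIKV premixed with nine-point compound dilutions, 48 hrs at 37° C. Luciferase signal normalized to DMSO controls as 100%; viability optionally by CellTiter-Glo with Rlu virus.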

Q: `COC(=O)N[C@H](C(=O)N1C[C@@H](F)C[C@H]1c1nc(Cl)c(-c2cc3c4c(c2)OCc2cc(-c5[nH]c([C@@H]6C[C@H](F)CN6C(=O)[C@@H](NC(=O)OC)C(C)(C)C(F)(F)F)nc5Cl)cc(c2-4)OC3)[nH]1)C(C)(C)C(F)(F)F` [Compound 52, dimethyl ((2S,2′S)-((3S,3′S,5S,5′S)-((5,10-dihydrochromeno[5,4,3-cde]chromene-2,7-diyl)bis(4-chloro-1H-imidazole-5,2-diyl))bis(3-fluoropyrrolidine-5,1-diyl))bis(4,4,4-trifluoro-3,3-dimethyl-1-oxobutane-l,2-diyl))dicarbamate] was tested. Which EC50 did it give?
A: 103 nM

Same assay, conditions: Zika virus, Huh-7, 48 h, Huh7 cells infected with recombinant luciferase reporter ZIKV (MOI about 0.1), luciferase signal

Q: Which EC50 does the source give for `COC(=O)N[C@H](C(=O)N1C[C@H](F)C[C@H]1c1nc(Cl)c(-c2cc3c4c(c2)OCc2cc(-c5[nH]c([C@@H]6C[C@@H](F)CN6C(=O)[C@@H](NC(=O)OC)C(C)C)nc5Cl)cc(c2-4)OC3)[nH]1)C(C)C` [Compound 53, dimethyl ((2S,2′S)-((3R,3′R,5S,5′S)-((5,10-dihydrochromeno[5,4,3-cde]chromene-2,7-diyl)bis(4-chloro-1H-imidazole-5,2-diyl))bis(3-fluoropyrrolidine-5,1-diyl))bis(3-methyl-1-oxobutane-1,2-diyl))dicarbamate] here?
A: 7.3 nM

Q: With `CC[C@H](C)[C@H](NC(=O)OC)C(=O)N1C[C@H](F)C[C@H]1c1nc(Cl)c(-c2cc3c4c(c2)OCc2cc(-c5[nH]c([C@@H]6C[C@@H](F)CN6C(=O)[C@@H](NC(=O)OC)[C@@H](C)CC)nc5Cl)cc(c2-4)OC3)[nH]1` [Compound 54, dimethyl ((2S,2′S,3S,3′S)-((3R,3′R,5S,5′S)-((5,10-dihydrochromeno[5,4,3-cde]chromene-2,7-diyl)bis(4-chloro-1H-imidazole-5,2-diyl))bis(3-fluoropyrrolidine-5,1-diyl))bis(3-methyl-1-oxopentane-1,2-diyl))dicarbamate] as the compound, how does the EC50 read?
A: 8 nM

Q: With `COC(=O)N[C@H](C(=O)N1C[C@H](F)C[C@H]1c1nc(Cl)c(-c2cc3c4c(c2)OCc2cc(-c5[nH]c([C@@H]6C[C@@H](F)CN6C(=O)[C@@H](NC(=O)OC)C(C)(C)C(F)(F)F)nc5Cl)cc(c2-4)OC3)[nH]1)C(C)(C)C(F)(F)F` [Compound 55, dimethyl ((2S,2′S)-((3R,3′R,5S,5′S)-((5,10-dihydrochromeno[5,4,3-cde]chromene-2,7-diyl)bis(4-chloro-1H-imidazole-5,2-diyl))bis(3-fluoropyrrolidine-5,1-diyl))bis(4,4,4-trifluoro-3,3-dimethyl-1-oxobutane-1,2-diyl))dicarbamate] as the compound, how does the EC50 read?
A: 4.7 nM

Q: Which EC50 does the source give for `COC(=O)N[C@H](C(=O)N1CC(F)(F)C[C@H]1c1nc(Cl)c(-c2cc3c4c(c2)OCc2cc(-c5[nH]c([C@@H]6CC(F)(F)CN6C(=O)[C@@H](NC(=O)OC)C(C)C)nc5Cl)cc(c2-4)OC3)[nH]1)C(C)C` [Compound 56, dimethyl ((2S,2′S)-((5S,5′S)-((5,10-dihydrochromeno[5,4,3-cde]chromene-2,7-diyl)bis(4-chloro-1H-imidazole-5,2-diyl))bis(3,3-difluoropyrrolidine-5,1-diyl))bis(3-methyl-1-oxobutane-1,2-diyl))dicarbamate] here?
A: 3.8 nM

Q: Which EC50 does the source give for `CC[C@H](C)[C@H](NC(=O)OC)C(=O)N1CC(F)(F)C[C@H]1c1nc(Cl)c(-c2cc3c4c(c2)OCc2cc(-c5[nH]c([C@@H]6CC(F)(F)CN6C(=O)[C@@H](NC(=O)OC)[C@@H](C)CC)nc5Cl)cc(c2-4)OC3)[nH]1` [Compound 57, dimethyl ((2S,2′S,3S,3′S)-((5S,5′S)-((5,10-dihydrochromeno[5,4,3-cde]chromene-2,7-diyl)bis(4-chloro-1H-imidazole-5,2-diyl))bis(3,3-difluoropyrrolidine-5,1-diyl))bis(3-methyl-1-oxopentane-1,2-diyl))dicarbamate] here?
A: 4.6 nM

Q: How did the EC50 turn out when `COC(=O)N[C@H](C(=O)N1CC(F)(F)C[C@H]1c1nc(Cl)c(-c2cc3c4c(c2)OCc2cc(-c5[nH]c([C@@H]6CC(F)(F)CN6C(=O)[C@@H](NC(=O)OC)C(C)(C)C(F)(F)F)nc5Cl)cc(c2-4)OC3)[nH]1)C(C)(C)C(F)(F)F` [Compound 58, dimethyl ((2S,2′S)-((5S,5′S)-((5,10-dihydrochromeno[5,4,3-cde]chromene-2,7-diyl)bis(4-chloro-1H-imidazole-5,2-diyl))bis(3,3-difluoropyrrolidine-5,1-diyl))bis(4,4,4-trifluoro-3,3-dimethyl-1-oxobutane-1,2-diyl))dicarbamate] was run?
A: 11 nM

Q: Which EC50 does the source give for `COC(=O)N[C@H](C(=O)N1CC2(CC2)C[C@H]1c1nc(Cl)c(-c2cc3c4c(c2)OCc2cc(-c5[nH]c([C@@H]6CC7(CC7)CN6C(=O)[C@@H](NC(=O)OC)C(C)C)nc5Cl)cc(c2-4)OC3)[nH]1)C(C)C` [Compound 59, dimethyl ((2S,2′S)-((6S,6′S)-((5,10-dihydrochromeno[5,4,3-cde]chromene-2,7-diyl)bis(4-chloro-1H-imidazole-5,2-diyl))bis(5-azaspiro[2.4]heptane-6,5-diyl))bis(3-methyl-1-oxobutane-1,2-diyl))dicarbamate] here?
A: 1.5 nM

Q: With `CC[C@H](C)[C@H](NC(=O)OC)C(=O)N1CC2(CC2)C[C@H]1c1nc(Cl)c(-c2cc3c4c(c2)OCc2cc(-c5[nH]c([C@@H]6CC7(CC7)CN6C(=O)[C@@H](NC(=O)OC)[C@@H](C)CC)nc5Cl)cc(c2-4)OC3)[nH]1` [Compound 60, dimethyl ((2S,2′S,3S,3′S)-((6S,6′S)-((5,10-dihydrochromeno[5,4,3-cde]chromene-2,7-diyl)bis(4-chloro-1H-imidazole-5,2-diyl))bis(5-azaspiro[2.4]heptane-6,5-diyl))bis(3-methyl-1-oxopentane-1,2-diyl))dicarbamate] as the compound, how does the EC50 read?
A: 1.7 nM

Q: How did the EC50 turn out when `COC(=O)N[C@H](C(=O)N1CC2(CC2)C[C@H]1c1nc(Cl)c(-c2cc3c4c(c2)OCc2cc(-c5[nH]c([C@@H]6CC7(CC7)CN6C(=O)[C@@H](NC(=O)OC)C(C)(C)C(F)(F)F)nc5Cl)cc(c2-4)OC3)[nH]1)C(C)(C)C(F)(F)F` [Compound 61, dimethyl ((2S,2′S)-((6S,6′S)-((5,10-dihydrochromeno[5,4,3-cde]chromene-2,7-diyl)bis(4-chloro-1H-imidazole-5,2-diyl))bis(5-azaspiro[2.4]heptane-6,5-diyl))bis(4,4,4-trifluoro-3,3-dimethyl-1-oxobutane-1,2-diyl))dicarbamate] was run?
A: 2.8 nM

Q: `COC(=O)N[C@H](C(=O)N1[C@H](C)CC[C@H]1c1nc(Cl)c(-c2cc3c4c(c2)OCc2cc(-c5[nH]c([C@@H]6CC[C@@H](C)N6C(=O)[C@@H](NC(=O)OC)C(C)C)nc5Cl)cc(c2-4)OC3)[nH]1)C(C)C` [Compound 62, dimethyl ((2S,2′S)-((2R,2′R,5S,5′S)-((5,10-dihydrochromeno[5,4,3-cde]chromene-2,7-diyl)bis(4-chloro-1H-imidazole-5,2-diyl))bis(2-methylpyrrolidine-5,1-diyl))bis(3-methyl-1-oxobutane-1,2-diyl))dicarbamate] was tested. Which EC50 did it give?
A: 17.7 nM

Q: How did the EC50 turn out when `CC[C@H](C)[C@H](NC(=O)OC)C(=O)N1[C@H](C)CC[C@H]1c1nc(Cl)c(-c2cc3c4c(c2)OCc2cc(-c5[nH]c([C@@H]6CC[C@@H](C)N6C(=O)[C@@H](NC(=O)OC)[C@@H](C)CC)nc5Cl)cc(c2-4)OC3)[nH]1` [Compound 63, dimethyl ((2S,2′S,3S,3′S)-((2R,2′R,5S,5′S)-((5,10-dihydrochromeno[5,4,3-cde]chromene-2,7-diyl)bis(4-chloro-1H-imidazole-5,2-diyl))bis(2-methylpyrrolidine-5,1-diyl))bis(3-methyl-1-oxopentane-1,2-diyl))dicarbamate] was run?
A: 16.4 nM

Q: With `COC(=O)N[C@H](C(=O)N1CCC[C@@]1(C)c1nc(Cl)c(-c2cc3c4c(c2)OCc2cc(-c5[nH]c([C@]6(C)CCCN6C(=O)[C@@H](NC(=O)OC)C(C)C)nc5Cl)cc(c2-4)OC3)[nH]1)C(C)C` [Compound 64, dimethyl ((2S,2′S)-((2S,2′S)-((5,10-dihydrochromeno[5,4,3-cde]chromene-2,7-diyl)bis(4-chloro-1H-imidazole-5,2-diyl))bis(2-methylpyrrolidine-2,1-diyl))bis(3-methyl-1-oxobutane-1,2-diyl))dicarbamate] as the compound, how does the EC50 read?
A: 234 nM

Q: With `COC(=O)N[C@H](C(=O)N1[C@H](C)CC[C@H]1c1nc(Cl)c(-c2cc3c4c(c2)OCc2cc(-c5[nH]c([C@@H]6CC[C@@H](C)N6C(=O)[C@@H](NC(=O)OC)C(C)(C)C(F)(F)F)nc5Cl)cc(c2-4)OC3)[nH]1)C(C)(C)C(F)(F)F` [Compound 65, dimethyl ((2S,2′S)-((2R,2′R,5S,5′S)-((5,10-dihydrochromeno[5,4,3-cde]chromene-2,7-diyl)bis(4-chloro-1H-imidazole-5,2-diyl))bis(2-methylpyrrolidine-5,1-diyl))bis(4,4,4-trifluoro-3,3-dimethyl-1-oxobutane-1,2-diyl))dicarbamate] as the compound, how does the EC50 read?
A: 71.7 nM

Q: How did the EC50 turn out when `CC[C@H](C)[C@H](NC(=O)OC)C(=O)N1CCC[C@@]1(C)c1nc(Cl)c(-c2cc3c4c(c2)OCc2cc(-c5[nH]c([C@]6(C)CCCN6C(=O)[C@@H](NC(=O)OC)[C@@H](C)CC)nc5Cl)cc(c2-4)OC3)[nH]1` [Compound 66, dimethyl ((2S,2′S,3S,3′S)-((2S,2′S)-((5,10-dihydrochromeno[5,4,3-cde]chromene-2,7-diyl)bis(4-chloro-1H-imidazole-5,2-diyl))bis(2-methylpyrrolidine-2,1-diyl))bis(3-methyl-1-oxopentane-1,2-diyl))dicarbamate] was run?
A: 44 nM

Q: For `CC[C@H](C)[C@H](NC(=O)OC)C(=O)N1C[C@@H](C)C[C@H]1c1ncc(-c2cc3c4c(c2)OCc2cc(-c5[nH]c([C@@H]6C[C@H](C)CN6C(=O)[C@@H](NC(=O)OC)[C@@H](C)CC)nc5Cl)cc(c2-4)OC3)[nH]1` [Compound 67, methyl ((2S,3S)-1-((2S,4S)-2-(4-chloro-5-(7-(2-((2S,4S)-1-((methoxycarbonyl)-L-isoleucyl)-4-methylpyrrolidin-2-yl)-1H-imidazol-5-yl)-5,10-dihydrochromeno[5,4,3-cde]chromen-2-yl)-1H-imidazol-2-yl)-4-methylpyrrolidin-1-yl)-3-methyl-1-oxopentan-2-yl)carbamate], which EC50 is on record?
A: 23.9 nM
